Read-outs that look alike come from different tables or passages of the source.
Assays:
[1] = type: in vivo
Experimental: The animals required to begin a given experiment were pooled and implanted monolaterally on day 0. Treatments were administered on measurable tumors. The solid tumors were allowed to grow to the desired volume range (animals with tumors not in the desired range were excluded). The mice were then pooled and unselectively distributed to the various treatment and control groups. Treatment started 20 days post WSU-DLCL2 tumor fragment implantation as indicated in the results section and in each table. The dosages are expressed in mg/kg, based on the body weight at start of therapy. Mice were checked daily, and adverse clinical reactions noted. Each group of mice was weighed as a whole daily until the weight nadir was reached. Then, groups were weighed once to thrice weekly until the end of the experiment. Tumors were measured with a calliper 2 to 3 times weekly until final sacrifice for sampling time, tumor reached 2000 mm^3 or until the animal died (whichever comes first). Solid tumor volumes were estimated from two-dimensional tumor measurements and calculated according to the following equation: […]
The day of death was recorded. Surviving animals were sacrificed and macroscopic examination of the thoracic and abdominal cavities was performed.
A dosage producing a 15% body weight loss (BWL) during three consecutive days (mean of group), 20% BWL during 1 day or 10% or more drug deaths was considered an excessively toxic dosage. Animal body weights included the tumor weight.

human WSU-DLCL2 = assay: Antitumor activity against human WSU-DLCL2 xenografts in SCID female mice; type: in vivo; conditions: for Median (nMad) tumor volume changes from baseline: n = 7
Experimental: To evaluate the antitumor activity of Bendamustine in combination with the dual pan-PI3K/mTOR inhibitor Compound A, experiments were conducted using female SCID mice bearing human WSU-DLCL2 xenografts. In this study, Bendamustine at 3.5 and 7 mg/kg was tested in combination with Compound A at 20 mg/kg.
CB17/1CR-Prkdc severe combined immunodeficiency (SCID)/Crl mice, at 8-10 weeks old, were bred at Charles River France (Domaine des Oncins, 69210 L'Arbreste, France) from strains obtained from Charles River, USA. Mice were over 18 g at start of treatment after an acclimatization time of at least 5 days. […] They were housed on a 12 hours light/dark cycle. Environmental conditions including animal maintenance, room temperature (22° C.±2° C.), relative humidity (55%±15%) and lighting times were recorded by the supervisor of laboratory animal sciences and welfare (LAW) and the records are archived.
The human WSU-DLCL2 tumor model was established by implanting (SC) small tumor fragments and was maintained in SCID female mice using serial passages.
Bendamustine formulation was prepared by incorporating the compound into NaCl 0.9% at pH 3. The preparation was prepared daily prior administration. The volume of IP administration per mouse was 10 mL/kg.
(§1) Compound A formulations were prepared in 1N HCl and water for injection, final pH was 3, followed by five cycles of vortexing and sonicating. The stock solution was chemically stable 7 days in the dark at 4° C. The volume of PO administration per mouse was 10 mL/kg.
For subcutaneous implantation of tumor cells, skin in the flank of the mice was disinfected using alcohol or Betadine® solution (Alcyon) and a suspension of tumor cells was inoculated SC unilaterally under a volume of 0.2 mL using a 23 G needle.
The animals required to begin a given experiment were pooled and implanted monolaterally on day 0. Treatments were administered on measurable tumors. The solid tumors were allowed to grow to the desired volume range (animals with tumors not in the desired range were excluded). The mice were then pooled and unselectively distributed to the various treatment and control groups. […] The dosages are expressed in mg/kg, based on the body weight at start of therapy. Mice were checked daily, and adverse clinical reactions noted. Each group of mice was weighed as a whole daily until the weight nadir was reached. Then, groups were weighed once to thrice weekly until the end of the experiment. Tumors were measured with a calliper 2 to 3 times weekly until final sacrifice for sampling time, tumor reached 2000 mm^3 or until the animal died (whichever comes first). Solid tumor volumes were estimated from two-dimensional tumor measurements and calculated according to the following equation:
Tumor weight (mg)=Length (mm)×Width^2(mm^2)/2
The primary efficacy end points are ΔT/ΔC, percent median regression, partial and complete regressions (PR and CR).
Changes in tumor volume for each treated (T) and control (C) group were calculated for each tumor by subtracting the tumor volume on the day of first treatment (staging day) from the tumor volume on the specified observation day. The median ΔT is calculated for the treated group, and the median ΔC is calculated for the control group. Then the ratio ΔT/ΔC is calculated and expressed as a percentage. The dose is considered as therapeutically active when ΔT/ΔC is lower than 40% and very active when ΔT/ΔC is lower than 10%.
Partial regression: Regressions are defined as partial if the tumor volume decreases to 50% or the tumor volume at the start of treatment.
Complete regression: The CR is achieved when tumor volume=0 mm^3 (CR is considered when tumor volume cannot be recorded).
The term “therapeutic synergy” is used when the combination of two products at given doses is more efficacious than the best of the two products alone considering the same doses.

[2] = Chemical stability of Compound A stock solution; type: physicochemical; conditions: formulation in 1N HCl and water for injection, final pH 3; in the dark at 4° C.
Experimental: as §1

[3] = Maximum tolerated dose of Compound A administered as single agent; conditions: twice daily
[4] = Bendamustine 3.5 mg/kg per injection (total 21) IP, days 20-25
[5] = Bendamustine 7 mg/kg per injection (total 42) IP, days 20-25
[6] = Compound A 20 mg/kg per injection (total 240) PO, days 20-31

With `Cn1c(CCCC(=O)O)nc2cc(N(CCCl)CCCl)ccc21` [Bendamustine, 4-[5-[Bis(2-chloroethyl)amino]-1-methylbenzimidazol-2-yl]butanoic acid] the “Average body weight change in % per mouse at nadir” value [1, 4] was −3.8%, the “Drug death (Day of death)” value [1, 4] was 0/7 and the “day of nadir (body weight)” value [1, 4] was 28 days. The “Average body weight change in % per mouse at nadir” value [1, 5] was −7.2%, the “Drug death (Day of death)” value [1, 5] was 0/7 and the “day of nadir (body weight)” value [1, 5] was 27 days. The Tolerability ([1]; as single agents or in combination: Bendamustine 3.5 and 7 mg/kg, Compound A 20 mg/kg) was “tolerated”, the “Regressions Complete” value (human WSU-DLCL2; [4]) was 0/7 and the “Regressions Partial” value (human WSU-DLCL2; [4]) was 0/7. The “Median (nMad) tumor volume changes from baseline” value (human WSU-DLCL2; Bendamustine 3.5 mg/kg, Day 24) was 170 (62.3), the “Median (nMad) tumor volume changes from baseline” value (human WSU-DLCL2; Bendamustine 3.5 mg/kg, Day 26) was 222 (89) and the “Median (nMad) tumor volume changes from baseline” value (human WSU-DLCL2; Bendamustine 3.5 mg/kg, Day 28) was 268 (252). The “Median (nMad) tumor volume changes from baseline” value (human WSU-DLCL2; Bendamustine 3.5 mg/kg, Day 31) was 483 (247.6), the “Regressions Complete” value (human WSU-DLCL2; [5]) was 0/7 and the “Regressions Partial” value (human WSU-DLCL2; [5]) was 0/7. For the same compound, the “Median (nMad) tumor volume changes from baseline” value (human WSU-DLCL2; Bendamustine 7 mg/kg, Day 24) was 267 (198.7), the “Median (nMad) tumor volume changes from baseline” value (human WSU-DLCL2; Bendamustine 7 mg/kg, Day 26) was 317 (258) and the “Median (nMad) tumor volume changes from baseline” value (human WSU-DLCL2; Bendamustine 7 mg/kg, Day 28) was 306 (268.4). The “Median (nMad) tumor volume changes from baseline” value (human WSU-DLCL2; Bendamustine 7 mg/kg, Day 31) was 477 (249.1).
In the case of `CCn1c(=O)c(-c2ccn[nH]2)cc2c(C)nc(N)nc21` [Compound A, 2-amino-8-ethyl-4-methyl-6-(1H-pyrazol-5-yl)pyrido[2,3-d]pyrimidin-7(8H)-one], the “Chemical stability of stock solution” value [2] is reported as 7 days, the “Drug death (Day of death)” value [1, 6] is reported as 0/7 and the “Average body weight change in % per mouse at nadir” value ([1]; mouse, in vivo, po, 20 mg/kg) is reported as −2.0%. For the same compound, the “day of nadir (body weight)” value ([1]; mouse, in vivo, po, 20 mg/kg) was 21 days, the “MTD of Compound A administered as single agent” value [3] was 50 mg BID and the “Regressions Complete” value (human WSU-DLCL2; [6]) was 0/7. For the same compound, the “Regressions Partial” value (human WSU-DLCL2; [6]) was 0/7, the “Median ΔT/ΔC in % day 31” value (human WSU-DLCL2; Compound A 20 mg/kg per injection (total 240) PO, days 20-31, day 31, 20 mg/kg) was 54% and the “Median (nMad) tumor volume changes from baseline” value (human WSU-DLCL2; Compound A 20 mg/kg, Day 24) was 145 (139.4). The “Median (nMad) tumor volume changes from baseline” value (human WSU-DLCL2; Compound A 20 mg/kg, Day 26) was 218 (26.7), the “Median (nMad) tumor volume changes from baseline” value (human WSU-DLCL2; Compound A 20 mg/kg, Day 28) was 242 (172) and the “Median (nMad) tumor volume changes from baseline” value (human WSU-DLCL2; Compound A 20 mg/kg, Day 31) was 314 (317.3).

Reference: US20140302012A1, “Combination Therapies for Treating Hematologic Malignancies Using Pyridopyrimidinone Inhibitors of PI3K/mTOR with Bendamustine and/or Rituximab” (priority 2011, published 2014)
